Measured values: publication PMC5887547, “An allosteric inhibitor of Mycobacterium tuberculosis ArgJ: Implications to a novel combinatorial therapy” (EMBO Molecular Medicine, 2018)

Experiments:
[1] = biological target: T1, Ornithine acetyltransferase (MtArgJ) (Mycobacterium tuberculosis, UniProt P9WPZ3); assay: thermal shift assay (apparent Kd); also ANS displacement ([…]) and enzyme inhibition by TLC assay (Dixon Ki […]); format: binding
T1 construct: gene argJ

[2] = biological target: T1, Ornithine acetyltransferase (MtArgJ); assay: […]; marginal decrease of enzyme activity (TLC assay); format: binding
[3] = system: CC(=O)N[C@@H](CCCN)C(=O)O; assay: purified protein; settings: active (substrate-binding) site

T1 sequence (P9WPZ3 1-199): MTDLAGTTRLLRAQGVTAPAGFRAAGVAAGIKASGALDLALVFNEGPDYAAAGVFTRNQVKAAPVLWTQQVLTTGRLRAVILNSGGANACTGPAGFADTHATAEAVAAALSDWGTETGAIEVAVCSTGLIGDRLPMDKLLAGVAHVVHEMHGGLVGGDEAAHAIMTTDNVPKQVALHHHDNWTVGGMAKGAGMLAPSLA
T1 sequence (P9WPZ3 200-404): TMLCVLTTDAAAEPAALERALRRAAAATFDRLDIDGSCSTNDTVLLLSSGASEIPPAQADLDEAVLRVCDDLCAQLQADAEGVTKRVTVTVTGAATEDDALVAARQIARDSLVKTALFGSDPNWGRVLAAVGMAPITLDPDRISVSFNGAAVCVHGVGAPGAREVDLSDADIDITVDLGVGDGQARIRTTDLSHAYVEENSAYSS

Compound `O=C(Nc1cccc2c(=O)cc(-c3nnn[nH]3)oc12)c1ccc(OCCCCc2ccccc2)cc1` [PRK, Pranlukast] has a Kd [1] of 126 µM.

For `O=S(=O)(O)c1cccc2cccc(Nc3ccccc3)c12` [ANS, 8‐anilinonaphthalene‐1‐sulfonic acid], the Kd [2] was 937 µM.

Work on “Ornithine acetyltransferase (MtArgJ) (Mycobacterium tuberculosis H37Rv)” yielded a Km [3] of 91.8 µM.
